pIC50: −log10 of the molar value. Like-named read-outs stand apart in the source and are kept apart here.
Experiments:
[1] = target: T1, XIAP BIR3 (Homo sapiens, UniProt P98170); test: XIAP-BIR3/SMAC Homogeneous Time Resolved Fluorescence (HTRF) Assay; assay type: binding
T1 construct: His-BIR3 (241-356, XIAP)
Protocol: A. XIAP-BIR3/SMAC Homogeneous Time Resolved Fluorescence (HTRF) Assay Assays were performed in black, flat-bottom, 384-well plates. […] The reaction was incubated at room temperature for 60 minutes, following which 10 μl of mouse anti-6×His-terbium labeled Fab (Medarex, Cis-bio) was added to the reaction (40 μl) for an additional 30 minute incubation. […] Compounds were dissolved at 3 mM in dimethylsulfoxide (DMSO) and evaluated at eleven serially diluted concentrations. IC50 and Ki values were derived by non-linear regression analysis.

[2] = target: T2, XIAP BIR2-3 (Homo sapiens, UniProt P98170, C202A/C213G); test: XIAP-BIR2-3 dimeric SMAC Peptide Homogeneous Time Resolved Fluorescence (HTRF) Assay; assay type: binding
T2 construct: His-BIR2-3 (125-356, C202A/C213G, XIAP)
Protocol: B. […] Assays were performed in black, flat-bottom, 384-well plates. […] Compounds were dissolved at 3 mM in dimethylsulfoxide (DMSO) and evaluated at eleven serially diluted concentrations. IC50 and Ki values were derived by non-linear regression analysis.

[3] = 1 nM N-His-BIR3 (241-356, XIAP), 5 nM fluorescein labeled SMAC peptide, HTRF signal, read-out: XIAP BIR3 IC50
[4] = 0.5 nM N-His-BIR2-3 (125-356, C202A/C213G, XIAP), 20 nM fluorescein labeled dimeric SMAC peptide, HTRF signal, read-out: XIAP BIR2-3 IC50

T1 sequence (P98170 241-356): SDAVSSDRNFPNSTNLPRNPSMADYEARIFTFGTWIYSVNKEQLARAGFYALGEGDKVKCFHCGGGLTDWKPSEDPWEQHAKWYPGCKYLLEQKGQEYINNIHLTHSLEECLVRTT
T2 sequence (P98170 125-356 C202A/C213G): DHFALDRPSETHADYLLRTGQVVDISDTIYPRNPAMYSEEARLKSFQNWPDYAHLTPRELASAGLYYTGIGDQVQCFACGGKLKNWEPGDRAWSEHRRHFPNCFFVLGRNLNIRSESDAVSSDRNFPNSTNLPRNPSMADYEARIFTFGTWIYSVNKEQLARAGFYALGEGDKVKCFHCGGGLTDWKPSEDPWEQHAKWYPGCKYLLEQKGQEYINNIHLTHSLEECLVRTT

Q: With `CN[C@@H](C)C(=O)N[C@H](C(=O)N1C[C@@H](c2ccc3c(c2)CN(C(=O)[C@@H](NC(=O)[C@H](C)NC)C(C)(C)C)[C@H](C(=O)N[C@@H]2CCCc4ccccc42)C3)C[C@H]1C(=O)N[C@@H](Cc1ccccc1)C(=O)NS(=O)(=O)c1ccc2ccccc2c1)C(C)(C)C` [Example 49, (S)-2-((S)-3,3-Dimethyl-2-((S)-2-(methylamino)propanamido)butanoyl)-7-((3R,5S)-1-((S)-3,3-dimethyl-2-((S)-2-(methylamino)propanamido)butanoyl)-5-(((S)-1-(naphthalene-2-sulfonamido)-1-oxo-3-phenylpropan-2-yl)carbamoyl)pyrrolidin-3-yl)-N-((R)-1,2,3,4-tetrahydronaphthalen-1-yl)-1,2,3,4-tetrahydroisoquinoline-3-carboxamide] as the compound, how does the pIC50 [1, 3] read?
A: 9.40

Q: And the pIC50 [2, 4]?
A: 9.30

Q: What does the source list for `CCC(CC)[C@H](NC(=O)[C@H](CC)NC)C(=O)N1Cc2cc(C(=O)N[C@H]3C[C@@H](C(=O)N[C@@H]4CCCc5ccccc54)N(C(=O)[C@@H](NC(=O)[C@H](C)NC)C(C)(C)C)C3)ccc2C[C@H]1C(=O)N[C@@H]1CCCc2ccccc21` [Example 19, (S)-N^7-((3S,5S)-1-((S)-3,3-Dimethyl-2-((S)-2-(methylamino)propanamido)butanoyl)-5-(((R)-1,2,3,4-tetrahydronaphthalen-1-yl)carbamoyl)pyrrolidin-3-yl)-2-((S)-3-ethyl-2-((S)-2-(methylamino)butanamido)pentanoyl)-N^3-((R)-1,2,3,4-tetrahydronaphthalen-1-yl)-1,2,3,4-tetrahydroisoquinoline-3,7-dicarboxamide]?
A: pIC50 [1, 3]: 8.15; pIC50 [2, 4]: 8.70

Q: With `CN[C@@H](C)C(=O)N[C@H](C(=O)N1C[C@@H](c2ccc3c(c2)CN(C(=O)[C@@H](NC(=O)[C@H](C)NC)C(C)(C)C)[C@H](C(=O)N[C@@H]2CCCc4ccccc42)C3)C[C@H]1C(=O)N[C@@H](Cc1ccccc1)C(=O)NS(=O)(=O)C1CC1)C(C)(C)C` [Example 50, (S)-7-((3R,5S)-5-(((S)-1-(Cyclopropanesulfonamido)-1-oxo-3-phenylpropan-2-yl)carbamoyl)-1-((S)-3,3-dimethyl-2-((S)-2-(methylamino)propanamido)butanoyl)pyrrolidin-3-yl)-2-((S)-3,3-dimethyl-2-((S)-2-(methylamino)propanamido)butanoyl)-N-((R)-1,2,3,4-tetrahydronaphthalen-1-yl)-1,2,3,4-tetrahydroisoquinoline-3-carboxamide] as the compound, how does the pIC50 [1, 3] read?
A: 9.05

Q: What about the pIC50 [2, 4] of the same compound?
A: 8.92

Q: How did the pIC50 [1, 3] turn out when `CC[C@H](NC)C(=O)N[C@H](C(=O)N1Cc2cc(C(=O)N[C@H]3C[C@@H](C(=O)N[C@@H]4CCCc5ccccc54)N(C(=O)[C@@H](NC(=O)[C@H](C)NC)C(C)(C)C)C3)ccc2C[C@H]1C(=O)N[C@@H]1CCCc2ccccc21)C(C)(C)C` [Example 3, (S)-2-((S)-3,3-Dimethyl-2-((S)-2-(methylamino)butanamido)butanoyl)-N^7-((3S,5S)-1-((S)-3,3-dimethyl-2-((S)-2-(methylamino)propanamido)butanoyl)-5-(((R)-1,2,3,4-tetrahydronaphthalen-1-yl)carbamoyl)pyrrolidin-3-yl)-N^3-((R)-1,2,3,4-tetrahydronaphthalen-1-yl)-1,2,3,4-tetrahydroisoquinoline-3,7-dicarboxamide] was run?
A: 8.22

Q: What about the pIC50 [2, 4] of the same compound?
A: 8.52

Q: `CCN[C@@H](C)C(=O)N[C@H](C(=O)N1Cc2cc(C(=O)N[C@H]3C[C@@H](C(=O)NC4CCCc5ccccc54)N(C(=O)[C@@H](NC(=O)[C@H](C)NC)C(C)(C)C)C3)ccc2C[C@H]1C(=O)NC1CCCc2ccccc21)C(C)(C)C` (stereo partly drawn) [Example 2] was tested. Which pIC50 [1, 3] did it give?
A: 8.05

Q: And the pIC50 [2, 4]?
A: 8.22

Q: How did the pIC50 [1] turn out when `CN[C@@H](C)C(=O)N[C@H](C(=O)N1C[C@@H](c2ccc3c(c2)CN(C(=O)[C@@H](NC(=O)[C@H](C)NC)C(C)(C)C)[C@H](C(=O)N[C@@H]2CCCc4ccccc42)C3)C[C@H]1C(=O)N[C@@H](Cc1ccccc1)C(=O)Nc1ccccc1)C(C)(C)C` [Example 68, (S)-2-((S)-3,3-Dimethyl-2-((S)-2-(methylamino)propanamido)butanoyl)-7-((3R,5S)-1-((S)-3,3-dimethyl-2-((S)-2-(methylamino)propanamido)butanoyl)-5-(((S)-1-oxo-3-phenyl-1-(phenylamino)propan-2-yl)carbamoyl)pyrrolidin-3-yl)-N-((R)-1,2,3,4-tetrahydronaphthalen-1-yl)-1,2,3,4-tetrahydroisoquinoline-3-carboxamide] was run?
A: 8.31

Q: What about the pIC50 [2] of the same compound?
A: 8.89

Q: With `CN[C@@H](C)C(=O)N[C@H](C(=O)N1Cc2cc([C@H]3C[C@@H](C(=O)N[C@@H](Cc4ccccc4)C(=O)O)N(C(=O)[C@@H](NC(=O)[C@H](C)NC)C(C)(C)C)C3)ccc2C[C@H]1C(=O)N[C@@H](Cc1ccccc1)C(=O)O)C(C)(C)C` [Example 86, (S)-2-((S)-7-((3R,5S)-5-(((S)-1-Carboxy-2-phenylethyl)carbamoyl)-1-((S)-3,3-dimethyl-2-((S)-2-(methylamino)propanamido)butanoyl)pyrrolidin-3-yl)-2-((S)-3,3-dimethyl-2-((S)-2-(methylamino)propanamido)butanoyl)-1,2,3,4-tetrahydroisoquinoline-3-carboxamido)-3-phenylpropanoic acid] as the compound, how does the pIC50 [1, 3] read?
A: 8.30

Q: What about the pIC50 [2, 4] of the same compound?
A: 8.57

Q: How did the pIC50 [1, 3] turn out when `CN[C@@H](C)C(=O)N[C@H](C(=O)N1C[C@@H](NC(=O)c2ccc3c(c2)CN(C(=O)[C@@H](NC(=O)[C@H](C)NC)C24CC5CC(CC(C5)C2)C4)[C@H](C(=O)NC2CCCc4ccccc42)C3)C[C@H]1C(=O)NC1CCCc2ccccc21)C(C)(C)C` (stereo partly drawn) [Example 10, (S)-2-((S)-2-((3S,5S,7S)-Adamantan-1-yl)-2-((S)-2-(methylamino)propanamido)acetyl)-N^7-((3S,5S)-1-((S)-3,3-dimethyl-2-((S)-2-(methylamino)propanamido)butanoyl)-5-(((R)-1,2,3,4-tetrahydronaphthalen-1-yl)carbamoyl)pyrrolidin-3-yl)-N^3-((R)-1,2,3,4-tetrahydronaphthalen-1-yl)-1,2,3,4-tetrahydroisoquinoline-3,7-dicarboxamide] was run?
A: 7.20

Q: What about the pIC50 [2, 4] of the same compound?
A: 8.40

Q: What does the source list for `CN[C@@H](C)C(=O)N[C@H](C(=O)N1C[C@@H](c2ccc3c(c2)CN(C(=O)[C@@H](NC(=O)[C@H](C)NC)C(C)(C)C)[C@H](C(=O)N[C@@H]2CCCc4ccccc42)C3)C[C@H]1C(=O)N[C@@H](Cc1ccccc1)c1nnn[nH]1)C(C)(C)C` [Example 78, (S)-2-((S)-3,3-Dimethyl-2-((S)-2-(methylamino)propanamido)butanoyl)-7-((3R,5S)-1-((S)-3,3-dimethyl-2-((S)-2-(methylamino)propanamido)butanoyl)-5-(((S)-2-phenyl-1-(1H-tetrazol-5-yl)ethyl)carbamoyl)pyrrolidin-3-yl)-N—((R)-1,2,3,4-tetrahydronaphthalen-1-yl)-1,2,3,4-tetrahydroisoquinoline-3-carboxamide]?
A: pIC50 [1, 3]: 8.05; pIC50 [2, 4]: 8.55

Q: `CN[C@@H](C)C(=O)N[C@H](C(=O)N1Cc2cc([C@H]3C[C@@H](C(=O)N[C@@H]4CCCc5ccccc54)N(C(=O)[C@@H](NC(=O)[C@H](C)NC)C(C)(C)C)C3)ccc2C[C@H]1C(=O)N[C@H](COC)Cc1ccccc1)C(C)(C)C` [Example 39, (S)-2-((S)-3,3-Dimethyl-2-((S)-2-(methylamino)propanamido)butanoyl)-7-((3R,5S)-1-((S)-3,3-dimethyl-2-((S)-2-(methylamino)propanamido)butanoyl)-5-(((R)-1,2,3,4-tetrahydronaphthalen-1-yl)carbamoyl)pyrrolidin-3-yl)-N-((S)-1-methoxy-3-phenylpropan-2-yl)-1,2,3,4-tetrahydroisoquinoline-3-carboxamide] was tested. Which pIC50 [1, 3] did it give?
A: 8.14

Q: And the pIC50 [2, 4]?
A: 8.25

Q: With `CN[C@@H](C)C(=O)N[C@H](C(=O)N1Cc2cc([C@H]3C[C@@H](C(=O)N[C@@H]4CCCc5ccccc54)N(C(=O)[C@@H](NC(=O)[C@H](C)NC)C(C)(C)C)C3)ccc2C[C@H]1C(=O)Nc1cc(C)nn1-c1ccccc1)C(C)(C)C` [Example 38, (S)-2-((S)-3,3-Dimethyl-2-((S)-2-(methylamino)propanamido)butanoyl)-7-((3R,5S)-1-((S)-3,3-dimethyl-2-((S)-2-(methylamino)propanamido)butanoyl)-5-(((R)-1,2,3,4-tetrahydronaphthalen-1-yl)carbamoyl)pyrrolidin-3-yl)-N-(3-methyl-1-phenyl-1H-pyrazol-5-yl)-1,2,3,4-tetrahydroisoquinoline-3-carboxamide] as the compound, how does the pIC50 [1, 3] read?
A: 8.49

Q: And the pIC50 [2, 4]?
A: 8.74

Q: With `CN[C@@H](C)C(=O)N[C@H](C(=O)N1C[C@@H](c2ccc3c(c2)CN(C(=O)[C@@H](NC(=O)[C@H](C)NC)C(C)(C)SCC(=O)NC(CO)CO)[C@H](C(=O)N[C@@H]2CCCc4ccccc42)C3)C[C@H]1C(=O)N[C@@H]1CCCc2ccccc21)C(C)(C)C` [Example 31, (S)-2-((R)-3-((2-((1,3-Dihydroxypropan-2-yl)amino)-2-oxoethyl)thio)-3-methyl-2-((S)-2-(methylamino)propanamido)butanoyl)-7-((3R,5S)-1-((S)-3,3-dimethyl-2-((S)-2-(methylamino)propanamido)butanoyl)-5-(((R)-1,2,3,4-tetrahydronaphthalen-1-yl)carbamoyl)pyrrolidin-3-yl)-N-((R)-1,2,3,4-tetrahydronaphthalen-1-yl)-1,2,3,4-tetrahydroisoquinoline-3-carboxamide] as the compound, how does the pIC50 [1, 3] read?
A: 7.86

Q: And the pIC50 [2, 4]?
A: 8.92
